Consider five compounds from patent US20120305476A1, “TREATMENT METHOD FOR REDUCING THE PRODUCTION OF AN H2S COMPOUND IN AQUEOUS EFFLUENTS PASSING INTO A PIPE” (CENTRE NATIONAL DE LA RECHERCHE SCIENTIFIQUE (CNRS), priority 2010, published 2012).

Where two headings read alike, the source gives them in different places.

The test system of experiment [1] is SRB bacteria that produce H2S. The note with it: treatment with nitrite alone; cited from earlier work.
The test system of experiment [2] is bacteria from the sludge sample (Shigella/Escherichia coli/Salmonella, Clostridium, Desulfovibrio type).
Experiment [3] deals with sulfate-reducing bacteria (SRB). As to the method:
Experiments were carried out on a sewerage system diagrammatically shown in FIG. 6, comprising a cesspool 3 supplied with effluent 1 from a conduit 11, a lifting pump 4 that was used to supply a force main 2 from the cesspool 3 to a holding tank 8 cooperating with a gravity fed transfer conduit 9 to a treatment plant (not shown).
The force main 2 was 1170 m [meter] long with a nominal diameter of 250 mm [millimeter], giving a volume of 57.5 m^3. The delivery of the lifting pump was 150 m^3/hour. A nitrite tank 12 cooperated with a dosing pump 7 to inject nitrite into the effluents entering the force main 2.
Sodium nitrite NaNO2 was tested in 40% by weight solution with a density of 1.3. This reagent was injected directly into the effluent pumping pit almost level with the inlet thereof into the force main via a dedicated dosing pump 7 that could reach a delivery of up to 14 L/h. Start-up of the dosing pump 7 was linked with that of the lifting pump 4 with the two pumps being stopped by a low level of effluents in the cesspool 3.
Various measurements for the concentration of sulfide in water leaving the force main were carried out. The concentration of sulfide in water was determined by means of an assay kit using the reaction of H2S with aniline forming a colorless intermediate that is oxidized by ferric ions to a colored compound: methylene blue, an optical disk comparator with a color gradient, was used to determine the concentration of sulfide in the solution as a function of its color. The temperatures of the effluent and redox potential were measured at the holding tank or settling tank 8 using standard equipment.

Experiment [4] concerns Desulfovibrio vulgaris Hindelborough (DvH). Briefly: H2S production by stationary-phase DvH culture on lactate/sulfate medium with metabolic inhibitors. It counts as cell-based. The note with it: for effect of metabolic inhibitor on DvH culture / H2S production: tested at different concentrations. As to the method:
Experiments were carried out with the SRB bacterium Desulfovibrio vulgaris Hindelborough (DvH) for which the genome has been sequenced and which is the model system for the study of sulfate-reducing bacteria.
The culture medium was a lactate/sulfate medium comprising: sodium sulfate 28 mM, magnesium sulfate 8 mM, lactate 45 mM and oligoelements (iron, Zn, Mn, Cu, Co, Mo, Ni, Se, W, Mg).
Various metabolic inhibitors were tested at different concentrations; examples were the addition of iron, oxygen, or a detergent. […] The study was continued by looking at the effect of adding small defined quantities of nitrite and nitrate on the production of H2S by the SRB.

For experiment [5], the system named is DvH+Shewanella consortium. The note with it: 5 mM; for production of H2S: FIG. 3 panel B. An excerpt:
FIG. 3 represents the effect of adding exogenous bacteria of the Shewanella type on the growth of a strain of sulfate-reducing bacteria, DvH, in the presence of nitrate or nitrite (panel A, %=quantity of biomass expressed as a % of the optical density (OD) at 600 nm [nanometers], such that 100% represents the OD at 600 nm for the biomass of a culture of DvH on a lactate/sulfate medium in the absence of treatment) and on the production of H2S (panel B, mM H2S). The control (growth and production of H2S) used a DvH culture with or without the addition of inhibitor. The effect of adding the Shewanella bacteria on the growth and production of H2S is presented in the presence of nitrate (+nitrite) and in the absence of nitrite (nitrite). The Shewanella bacteria alone had no significant effect on H2S production. In FIG. 3, the various symbols represent the experiments under the following conditions: ? =5 mM of nitrate on a DvH+Shewanella consortium, ? =consortium of DvH+Shewanella bacteria in the presence of 5 mM of nitrite, ? =presence of DvH bacteria alone, ? =presence of DvH bacteria alone+nitrite;
A wide range of non-pathogenic aerobic and anaerobic bacteria known to be decontaminants that are compatible with a toxic environment was tested, including the following Gram− aerobic bacteria: Shewanella oneidensis, Rhodobacter sphaeroides, Rhodobacter denitrificans, R. velkampi, Pseudomonas stutzeri, Pseudomonas zobell and Rhospeudomonas palustri, as well as the following anaerobic Gram+ bacteria: Bacillus mojavensis and Bacillus amiloliquefaciens.
However, it has been discovered that it is possible to overcome this bactericidal effect problem by adding exogenic bacteria.

For experiment [6], the system named is Desulfovibrio vulgaris Hindelborough (DvH). The note with it: SRB pure strain (DvH alone), FIG. 2. The text has this: FIG. 2 represents the relationship between the quantity of biomass (%) and the production of H2S (mM) for a stationary phase culture of DvH bacteria in the presence of different concentrations of nitrites or nitrates in the culture medium. The quantity of biomass (bacterial survival) is expressed as the % optical density (OD) at 600 nm [nanometer] compared with the OD at 600 nm of the biomass for a DvH culture on a lactate/sulfate medium in the absence of treatment, this culture representing 100%;
In FIG. 2, the quantities of biomass (% growth) and production of H2S (mM) are shown under the following conditions: ? =% growth+nitrite, ? =H2S production+nitrite, ? =% growth+nitrate, ? H2S production+nitrate;
In FIG. 2, bacterial survival was monitored.

Turning to `O=NO` [nitrite], the “effect on hydrogen sulfide production” value in experiment [1] was “No effect on hydrogen sulfide production is observed”. Further, in experiment [2] (beyond 5 mM of nitrite), the “biomass (bactericidal effect)” value is listed as “biomass was slightly affected” and the “inhibiting effect on H2S production” value is “inhibiting effect on H2S production reduced”. In addition, the cell death result in experiment [2] (even in the absence of Shewanella, concentration 5 mM or less) is reported as “did not induce cell death”. The “duration of the effect on the bacteria after nitrite is consumed” value in experiment [2] (nitrite consumed over time) is “long-lasting effect or remanence effect”. Besides, the “concentration from which a drop in the production of H2S is induced” value in experiment [2] (sludge sample) is recorded as no less than 3 mM. Moreover, the “rise in the sulfide concentrations after stopping the nitrite treatment” value in experiment [3] (after 24 h) was “no more than 25%”. Also, the “rise in the sulfide concentrations after stopping the nitrite treatment” value in experiment [3] (after stopping treatment) is reported as “approximately 10%”. Further, in experiment [4], the “concentration giving visible and substantial inhibition of H2S production” value is no less than 5 mM; the “reduction of the production of H2S” value was “approximately 90%”. In addition, the biomass entry in experiment [5] (FIG. 3 panel A) was “maintaining the biomass”. Also, the “production of H2S” value in experiment [5] was “reduction in the production of H2S”.
Regarding `[Fe]` [iron], the “effect of metabolic inhibitor on DvH culture / H2S production” value in experiment [4] was “induced a drastic oxidizing stress and caused bacterial death”.
For the compound `O=O` [oxygen], in experiment [4], the “effect of metabolic inhibitor on DvH culture / H2S production” value is “production of H2S restarted as soon as the redox potential of the medium became negative again”.
Regarding `O=[N+]([O-])O` [nitrate], in experiment [4], the “concentration giving visible and substantial inhibition of H2S production” value turned out to be 15 mM; the “reduction of the production of H2S” value is listed as “approximately 90%”. The “production of H2S” value in experiment [5] is given as “no significant reduction in H2S production was observed”.
Turning to `O=NO` [sodium nitrite], the “maximum quantity of dissolved sulfide H2S at the outlet from the force main” value in experiment [3] (2.5 g/m^3 to 6 g/m^3 per g/m^3 of sulfide to be reduced, every other day or overnight) is listed as no more than 1.5 mg/L. Further, the “quantity of dissolved sulfites at the force main outlet” value in experiment [3] (4 g to 5 g per gram of dissolved sulfide produced in the absence of treatment) was no more than 1 mg/L. In experiment [3] (daily treatments with 2.5 g/m^3 to 6 g/m^3 of NaNO2), the “reduction of dissolved sulfide produced by the conduit” value is reported as 1 g/m^3. The “remanence of inhibiting activity” value in experiment [3] (on-site, transient and intermittent treatment) is reported as “remanence effect”. In experiment [6], the bacterial survival result is “lethal effect on bacteria”.
